{"source": "paper PMC3855799", "about": "(PLoS ONE, 2013)", "target": "hNav1.7 alpha subunit (Homo sapiens, UniProt Q15858)", "sequence (Q15858 1-1977 isoform Q15858-3)": "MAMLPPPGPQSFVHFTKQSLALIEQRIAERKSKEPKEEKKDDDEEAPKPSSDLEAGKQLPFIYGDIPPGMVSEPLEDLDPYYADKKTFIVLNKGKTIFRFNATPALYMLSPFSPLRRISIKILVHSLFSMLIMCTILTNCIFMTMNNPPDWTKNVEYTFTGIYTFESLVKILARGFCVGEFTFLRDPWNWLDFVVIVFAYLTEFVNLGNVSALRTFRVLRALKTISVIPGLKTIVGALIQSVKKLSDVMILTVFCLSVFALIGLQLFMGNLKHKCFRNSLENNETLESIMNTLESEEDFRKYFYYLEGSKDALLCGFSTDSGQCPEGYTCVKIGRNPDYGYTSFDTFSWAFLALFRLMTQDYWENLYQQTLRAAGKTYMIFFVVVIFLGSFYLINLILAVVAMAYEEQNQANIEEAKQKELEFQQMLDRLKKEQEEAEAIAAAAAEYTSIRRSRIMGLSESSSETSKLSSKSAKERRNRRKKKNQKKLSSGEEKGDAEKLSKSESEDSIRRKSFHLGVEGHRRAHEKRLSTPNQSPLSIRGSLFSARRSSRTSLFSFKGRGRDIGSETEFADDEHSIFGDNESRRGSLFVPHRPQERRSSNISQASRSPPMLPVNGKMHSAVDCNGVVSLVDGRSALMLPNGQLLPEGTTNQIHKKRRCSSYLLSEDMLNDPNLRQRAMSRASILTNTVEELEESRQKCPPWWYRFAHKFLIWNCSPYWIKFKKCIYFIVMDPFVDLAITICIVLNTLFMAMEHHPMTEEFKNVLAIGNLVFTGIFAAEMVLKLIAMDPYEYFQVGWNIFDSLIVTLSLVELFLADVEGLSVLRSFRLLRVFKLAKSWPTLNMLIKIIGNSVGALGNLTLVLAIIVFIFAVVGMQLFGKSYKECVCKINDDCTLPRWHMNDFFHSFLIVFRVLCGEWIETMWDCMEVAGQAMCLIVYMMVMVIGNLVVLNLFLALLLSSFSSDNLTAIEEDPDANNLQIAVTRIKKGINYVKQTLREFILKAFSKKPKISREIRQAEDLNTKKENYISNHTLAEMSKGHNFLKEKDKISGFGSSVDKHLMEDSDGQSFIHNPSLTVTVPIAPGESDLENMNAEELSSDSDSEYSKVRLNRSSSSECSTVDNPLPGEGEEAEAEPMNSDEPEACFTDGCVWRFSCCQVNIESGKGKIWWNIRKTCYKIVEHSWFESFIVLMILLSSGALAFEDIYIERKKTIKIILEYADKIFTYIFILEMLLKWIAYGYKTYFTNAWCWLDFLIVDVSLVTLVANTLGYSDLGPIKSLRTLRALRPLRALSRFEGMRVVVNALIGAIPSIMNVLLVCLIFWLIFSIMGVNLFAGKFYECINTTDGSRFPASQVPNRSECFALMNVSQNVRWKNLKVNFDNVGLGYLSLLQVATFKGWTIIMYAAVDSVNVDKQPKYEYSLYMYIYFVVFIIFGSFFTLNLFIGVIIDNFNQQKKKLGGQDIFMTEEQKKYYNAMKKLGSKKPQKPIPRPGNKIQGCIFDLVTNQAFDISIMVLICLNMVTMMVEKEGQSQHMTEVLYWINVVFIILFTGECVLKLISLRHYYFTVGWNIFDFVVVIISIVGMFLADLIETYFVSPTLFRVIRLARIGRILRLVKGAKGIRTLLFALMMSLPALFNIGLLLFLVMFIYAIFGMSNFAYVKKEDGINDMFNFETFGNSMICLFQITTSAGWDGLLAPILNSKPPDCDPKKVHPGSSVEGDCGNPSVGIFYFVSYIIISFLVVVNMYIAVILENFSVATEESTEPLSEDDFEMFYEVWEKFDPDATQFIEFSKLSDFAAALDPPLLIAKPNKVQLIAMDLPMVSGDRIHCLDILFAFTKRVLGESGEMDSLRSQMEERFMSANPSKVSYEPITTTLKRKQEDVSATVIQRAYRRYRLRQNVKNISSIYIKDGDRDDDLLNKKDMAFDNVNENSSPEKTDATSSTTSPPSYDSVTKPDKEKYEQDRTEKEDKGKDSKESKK", "experiment": "Electrophysiology using Sophion QPatch: inhibition of hNav1.7 currents", "assay_type": "cell-based", "details": "QPatch 16X whole cell voltage clamp, hNav1.7 alpha HEK 293; holding -80 mV, -120mV for 100ms, step to 0mV; peak inward current; cumulative doses 100pM to 10µM, 10 minutes per dose; extracellular buffer pH 7.4 + 0.1% BSA; n = 9-11 (given for HwTx-IV(acid)); spread type not stated; read-out: IC50 on Nav1.7", "experimental": "Electrophysiology using Sophion QPatch^TM\nhNav1.7 alpha HEK 293 cell line (NM_002977.2) was obtained from Millipore and cells were cultured in a 50/50 mix of DMEM and Hams F-12 growth media supplemented with 10% FBS. Cells were passaged by Detachin (Genlantis) treatment (5 minutes), seeded 48-72 hours prior to experiments and used between passage 5 and 10. Cells were harvested at 70% confluency and resuspended by trituration in 8ml of Ex-cell ACF CHO serum free media (Sigma) + 20mM HEPES giving a cell density of 2-3x10^6cells/ml.\nSolutions for electrophysiology: Extracellular solution contained (in mM) NaCl (145), KCl (2), CaCl2 (2), MgCl2 (1), HEPES (10), pH 7.4 with NaOH, osmolarity adjusted to 300 mOsm with sucrose. Intracellular solution contained (in mM), CsF (140), NaCl (10), EGTA (1), HEPES (10), pH 7.2 with CsOH, osmolarity adjusted to 325 mOsm with sucrose.\nSerial dilutions were made in extracellular buffer + 0.1% BSA. Cumulative dose response curves were constructed with doses of 1e-10 to 1e-5M (100pM to 10µM). Each dose was applied for 10 minutes with 3x5µl compound additions spaced 2 seconds apart (Note that complete solution exchange is achieved with volumes of ~2µl).\nNav1.7 currents were measured using the automated electrophysiology platform Qpatch 16X (Sophion) in single hole configuration. […] To measure Nav1.7 currents, membrane potential was held at -80 mV then stepped to -120mV for 100ms to remove fast inactivation, followed by a step to 0mV for 10ms to activate Nav1.7 then returned to -120mV for 100ms. This voltage protocol was repeated at a rate of 0.2Hz with a the membrane potential held at -80mV between sweeps. Data were sampled at 10kHz and filtered using a 4 pole Bessel filter at 3kHz. P/N leak subtraction was utilized with a leak sweep of -10%. Series resistance was compensated 75% as standard. Liquid junction potentials were not corrected.\nPeak inward current at 0mV was normalised to cell capacitance (pA/pF). […]", "note": "“And” between values parts separate entries of the source, which are not always exact repeats. Equal entries are not always repeated.", "data": [{"smiles": "CC[C@H](C)[C@H](NC(=O)[C@H](CCC(N)=O)NC(=O)[C@H](Cc1ccc(O)cc1)NC(=O)[C@H](CCCCN)NC(=O)[C@@H]1CSSC[C@@H]2NC(=O)[C@H](CCC(N)=O)NC(=O)[C@H](CC(=O)O)NC(=O)[C@H](CC(N)=O)NC(=O)[C@H](CO)NC(=O)[C@@H]3CCCN3C(=O)[C@H](CC(N)=O)NC(=O)[C@@H]3CSSC[C@H](NC(=O)[C@H](C(C)C)NC(=O)[C@H](CC(C)C)NC(=O)[C@H](CCCCN)NC(=O)[C@H](CO)NC(=O)[C@H](CO)NC(=O)[C@H](CCCCN)NC(=O)[C@H](CSSC[C@H](NC(=O)[C@@H](N)CCC(=O)O)C(=O)N[C@@H](CC(C)C)C(=O)N[C@@H](CCC(=O)O)C(=O)N[C@@H]([C@@H](C)CC)C(=O)N[C@@H](Cc4ccccc4)C(=O)N[C@@H](CCCCN)C(=O)N[C@@H](C)C(=O)N3)NC2=O)C(=O)N[C@@H](CO)C(=O)N[C@@H](CCCNC(=N)N)C(=O)N[C@@H](CCCCN)C(=O)N[C@@H]([C@@H](C)O)C(=O)N[C@@H](CCCNC(=N)N)C(=O)N[C@@H](Cc2c[nH]c3ccccc23)C(=O)N1)C(=O)O", "note": "[HwTx-IV(acid)]", "values": [{"measurement": "IC50", "result": "463 to 727 nM and 727 nM and 463 nM"}]}, {"smiles": "CC[C@H](C)[C@H](NC(=O)[C@H](CCC(N)=O)NC(=O)[C@H](Cc1ccc(O)cc1)NC(=O)[C@H](CCCCN)NC(=O)[C@@H]1CSSC[C@@H]2NC(=O)[C@H](CCC(N)=O)NC(=O)[C@H](CC(=O)O)NC(=O)[C@H](CC(N)=O)NC(=O)[C@H](CO)NC(=O)[C@@H]3CCCN3C(=O)[C@H](CC(N)=O)NC(=O)[C@@H]3CSSC[C@H](NC(=O)[C@H](C(C)C)NC(=O)[C@H](CC(C)C)NC(=O)[C@H](CCCCN)NC(=O)[C@H](CO)NC(=O)[C@H](CO)NC(=O)[C@H](CCCCN)NC(=O)[C@H](CSSC[C@H](NC(=O)[C@@H](N)CCC(=O)O)C(=O)N[C@@H](CC(C)C)C(=O)N[C@@H](CCC(=O)O)C(=O)N[C@@H]([C@@H](C)CC)C(=O)N[C@@H](Cc4ccccc4)C(=O)N[C@@H](CCCCN)C(=O)N[C@@H](C)C(=O)N3)NC2=O)C(=O)N[C@@H](CO)C(=O)N[C@@H](CCCNC(=N)N)C(=O)N[C@@H](CCCCN)C(=O)N[C@@H]([C@@H](C)O)C(=O)N[C@@H](CCCNC(=N)N)C(=O)N[C@@H](Cc2c[nH]c3ccccc23)C(=O)N1)C(=O)NCC(=O)O", "note": "[HwTx-IV^G36(acid)]", "values": [{"measurement": "IC50", "result": "190 nM and 195 nM"}]}, {"smiles": "CC[C@H](C)[C@H](NC(=O)[C@H](CCC(N)=O)NC(=O)[C@H](Cc1ccc(O)cc1)NC(=O)[C@H](CCCCN)NC(=O)[C@@H]1CSSC[C@@H]2NC(=O)[C@H](CCC(N)=O)NC(=O)[C@H](CC(=O)O)NC(=O)[C@H](CC(N)=O)NC(=O)[C@H](CO)NC(=O)[C@@H]3CCCN3C(=O)[C@H](CC(N)=O)NC(=O)[C@@H]3CSSC[C@H](NC(=O)[C@H](C(C)C)NC(=O)[C@H](CC(C)C)NC(=O)[C@H](CCCCN)NC(=O)[C@H](CO)NC(=O)[C@H](CO)NC(=O)[C@H](CCCCN)NC(=O)[C@H](CSSC[C@H](NC(=O)[C@@H](N)CCC(=O)O)C(=O)N[C@@H](CC(C)C)C(=O)N[C@@H](CCC(=O)O)C(=O)N[C@@H]([C@@H](C)CC)C(=O)N[C@@H](Cc4ccccc4)C(=O)N[C@@H](CCCCN)C(=O)N[C@@H](C)C(=O)N3)NC2=O)C(=O)N[C@@H](CO)C(=O)N[C@@H](CCCNC(=N)N)C(=O)N[C@@H](CCCCN)C(=O)N[C@@H]([C@@H](C)O)C(=O)N[C@@H](CCCNC(=N)N)C(=O)N[C@@H](Cc2c[nH]c3ccccc23)C(=O)N1)C(=O)NCC(N)=O", "note": "[HwTx-IV^G36(amide)]", "values": [{"measurement": "IC50", "result": "33 ± 9", "unit": "nM"}]}]}
